According to patent US20050080113A1, “Medicinal compositions” (priority 2001, published 2005):

`Cc1cccc(-c2nc(-c3ccc(S(C)(=O)=O)cc3)sc2-c2cc(C)nc(C)c2)c1` [H 58-2, 5 (2,6 dimethyl-4-pyridyl)-4 (3 methylphenyl)-2 (4 methylsulfonylphenyl)-1,3-thiazole] gave a melting point of 182 to 184 °C. Work on `Cc1cc(C)cc(-c2nc(-c3ccc(S(C)(=O)=O)cc3)sc2-c2cc(C)nc(C)c2)c1` [H 58-3, 4 (3,5 dimethylphenyl)-5-(2,6 dimethyl-4 pyridyl)-2 (4 methylsulfonylphenyl)-1,3-thiazole] yielded a melting point of 217 to 220 °C. `Cc1cccc(-c2nc(-c3ccc(S(C)(=O)=O)cc3)sc2-c2ccnc(F)c2)c1` [H 58-4, 5-(2-fluoro-4-pyridyl)-4-(3-methylphenyl)-2-(4-methylsulfonylphenyl)-1,3-thiazole] showed a melting point of 195 to 199 °C. `Cc1cc(-c2sc(-c3ccc(S(C)(=O)=O)cc3)nc2-c2ccc(F)cc2)ccn1` [H 58-5, 4 (4 fluorophenyl)-5 (2-methyl-4 pyridyl)-2 (4 methylsulfonylphenyl)-1,3 thiazole] showed a melting point of 190 to 192 °C. For `CC(=O)Nc1cc(-c2sc(-c3ccc(S(C)(=O)=O)cc3)nc2-c2cccc(Cl)c2)ccn1` [H 58-6, N-[4-[4-(3-chlorophenyl)-2-(4-methylsulfonylphenyl)-1,3-thiazol-5-yl]-2-pyridyl]acetamide], the melting point was 216 to 217 °C. `CC(C)(C)C(=O)Nc1cc(-c2sc(-c3ccc(S(C)(=O)=O)cc3)nc2-c2cccc(Cl)c2)ccn1` [H 58-8, N-[4-[4-(3-chlorophenyl)-2-(4-methylsulfonylphenyl)-1,3-thiazol-5-yl]-2-pyridyl]pivalamide] gave a melting point of 122 to 123 °C. For `Cc1cc(C)cc(-c2nc(-c3ccc(S(C)(=O)=O)cc3)sc2-c2cc[n+]([O-])c(C)c2)c1` [H 59, 4 [4 (3,5 dimethylphenyl)-2 (4 methylsulfonylphenyl)-1,3-thiazol-5 yl]-2 methylpyridine N-oxide], the melting point was 255 to 256 °C. Compound `Cc1cccc(-c2nc(NC(=O)OCCCl)sc2-c2ccnc(C)c2)c1` [H 62, 2 chloroethyl [4 (3-methylphenyl)-5 (2 methyl-4 pyridyl)-1,3 thiazol-2-yl]carbamate] has a melting point of 156 to 158 °C. In the case of `CONC(=O)Nc1nc(-c2cccc(C)c2)c(-c2ccnc(C)c2)s1` [H 63, N-methoxy-N′-[4 (3 methylphenyl)-5 (2 methyl-4 pyridyl)-1,3-thiazol-2 yl]urea], the melting point is reported as 194 to 195 °C. With `Cc1cccc(-c2nc(NC(=O)NOc3ccccc3)sc2-c2ccnc(C)c2)c1` [H 64, N-[4 (3 methylphenyl)-5 (2-methyl-4 pyridyl)-1,3 thiazol-2 yl]-N′-phenyloxyurea] the melting point was 154 to 155 °C. `Cc1cccc(C2=NCSC2(c2ccnc(C)c2)N2CCOC2=O)c1` (stereo not drawn) [H 65, 3 [4 (3 methylphenyl)-5 (2 methyl-4 pyridyl)-1,3 thiazol-5-yl]-oxazolidin-2 one] gave a melting point of 80 to 82 °C. Work on `Cc1cccc(-c2nc(N3CCNC3=O)sc2-c2ccnc(C)c2)c1` [H 66, 1 [4 (3 methylphenyl)-5 (2-methyl-4 pyridyl)-1,3 thiazol-2 yl]imidazolidin-2 one] yielded a melting point of 200 to 201 °C. Work on `Cc1cccc(-c2nc(N3CCN(c4ccccc4)C3=O)sc2-c2ccnc(C)c2)c1` [H 67, 1 [4 (3 methylphenyl)-5 (2 methyl-4 pyridyl)-1,3 thiazol-2-yl]-3 phenylimidazolidin-2 one] yielded a melting point of 180 to 182 °C. `Cc1cccc(-c2nc(-c3ccc(S(C)(=O)=O)cc3)sc2-c2cc[n+]([O-])c(C)c2)c1` [H 68-1, 4 [4 (3 methylphenyl)-2-(4 methylsulfonylphenyl)-1,3 thiazol-5 yl]-2 methylpyridine N-oxide] showed a melting point of 197 to 198 °C. Work on `CCc1nc(-c2cccc(C)c2)c(-c2ccnc(CC#N)c2)s1` [H 71, 5 (2 cyanomethyl-4 pyridyl)-2 ethyl-4 (3 methylphenyl)-1,3-thiazole] yielded a melting point of 68 to 69 °C.
